This note sets out measurements from ChEMBL document CHEMBL4138065, “Protein-ligand (un)binding kinetics as a new paradigm for drug discovery at the crossroad between experiments and modelling” (Medchemcomm, 2017).

For the assay, the target named is T1, C5a anaphylatoxin chemotactic receptor 1 (Homo sapiens) (UniProt P21730).
T1 sequence (whole entry): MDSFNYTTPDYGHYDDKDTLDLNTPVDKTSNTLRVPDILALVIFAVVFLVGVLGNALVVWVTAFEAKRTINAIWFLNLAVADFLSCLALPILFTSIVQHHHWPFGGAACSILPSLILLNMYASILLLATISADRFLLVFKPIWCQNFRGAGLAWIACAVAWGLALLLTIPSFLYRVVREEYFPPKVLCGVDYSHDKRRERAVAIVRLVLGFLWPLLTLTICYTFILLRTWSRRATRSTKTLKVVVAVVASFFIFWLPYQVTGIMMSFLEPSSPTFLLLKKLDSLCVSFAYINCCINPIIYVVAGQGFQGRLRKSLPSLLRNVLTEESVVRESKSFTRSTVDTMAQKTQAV
The assay is described as follows: Antagonist activity at of C5aR in human macrophages assessed as half life of residence time for maintaining reduction in C5a-induced macrophage response. Type of assay: functional.

Each structure is given as a SMILES string.

Consider `COc1ccc2c(c1)C(C(=O)N(Cc1ccc(N(C)C)cc1)c1ccc(C(C)C)cc1)CCC2` (stereo not drawn), for which the T1/2 lay within 1 to 3 h.
For `CC(=O)N[C@@H](Cc1ccccc1)C(=O)N[C@H]1CCCNC(=O)[C@H](CCCN=C(N)N)NC(=O)[C@H](Cc2c[nH]c3ccccc23)NC(=O)[C@@H](CC2CCCCC2)NC(=O)[C@@H]2CCCN2C1=O`, the T1/2 was 20 h.
Under `CCc1cccc(CC)c1-c1cc(OC(C)C)c2c(n1)CCCC2Nc1ccccc1CCO` (stereo not drawn) stands 1 to 3 h.
